{
  "source": "patent US20240165089A1",
  "about": "“METHOD FOR TREATING MYOPIA WITH VINPOCETINE” (EYE HOSPITAL, WENZHOU MEDICAL UNIVERSITY, priority 2021, published 2024)",
  "key": {"[1]": {"tested_on": "form deprivation myopia model of guinea pigs", "experiment": "FDM guinea pig model, subconjunctival injection of AVA", "assay_type": "in vivo", "conditions": "1 week", "procedure": "The modeling method for myopic individuals was the same as other embodiments of the present invention. […] No other active substances or excipients were added."}, "[2]": {"tested_on": "form deprivation myopia model of guinea pigs", "experiment": "FDM guinea pig model, subconjunctival injection, salmeterol/tiotropium/vinpocetine", "conditions": "0.1% atropine, 2 weeks", "text": "The form deprivation myopia model of guinea pigs described in the present invention was used to evaluate the efficacy. […] On the first day of the experiment, guinea pigs were subjected to form deprivation at 8 a.m. using a mask method, with the right eye covered (experimental eye) and the left eye uncovered (contralateral eye). Starting from the day of modeling, solvents or drugs for the corresponding groups were given to the experimental eyes at 9-10 a.m. every day by eyeball subconjunctival injection at an injection volume of 100 μL, once a day for 2 weeks. The refraction and axial parameters of the animals were detected before the start of the efficacy experiment and at the end of the experiment. All data collection and processing methods were the same as in other embodiments of the present invention. The statistical basis was the difference between the experimental eye and the contralateral eye of the same subject individual."}, "[3]": {"tested_on": "form deprivation myopia model of guinea pigs", "experiment": "FDM guinea pig model, eye drops (non-invasive administration)", "assay_type": "in vivo", "procedure": "The purpose of this experiment was to evaluate the effect of vinpocetine on myopia through non-invasive administration. All tested drugs were formulated into eye drops. […] No other active substances or excipients were added to the above eye drops."}, "[4]": {"conditions": "0.1% atropine eye drops, 2 weeks"}, "[5]": {"conditions": "0.1% atropine eye drops, 2 weeks (rounded and actual value)"}},
  "note": "“And” between values parts separate entries of the source, which are not always exact repeats. Identical values can stand only once.",
  "data": [
    {"molecule": "CC[C@@]12C=C(C(=O)O)n3c4c(c5ccccc53)CCN(CCC1)[C@H]42", "note": "[AVA, apovincaminic acid]", "values": [
      {"measurement": "axial length difference between the eyes", "setting": "[1]; AVA 1 μM", "value": "0.07±0.03", "unit": "mm"},
      {"measurement": "inhibition rate for the axial length", "setting": "[1]; AVA 1 μM", "value": 36.4, "unit": "%"},
      {"measurement": "inhibition rate for the vitreous chamber depth", "setting": "[1]; AVA 1 μM", "value": 34.7, "unit": "%"},
      {"measurement": "ocular abnormalities", "setting": "[1]; AVA 1 μM", "value": "no ocular abnormalities were observed"},
      {"measurement": "refraction inhibition rate", "setting": "[1]; AVA 1 μM", "value": 39.6, "unit": "%"},
      {"measurement": "vitreous chamber depth difference between the eyes", "setting": "[1]; AVA 1 μM", "value": "0.06±0.02", "unit": "mm"},
      {"measurement": "refraction difference between the eyes", "setting": "[1]; FDM, AVA 1 μM subconjunctival 100 μL once a day", "value": "−2.65±1.18", "unit": "D"}
    ]},
    {"molecule": "CN1[C@@H]2CC[C@H]1C[C@@H](OC(=O)C(CO)c1ccccc1)C2", "note": "(stereo partly shown) [atropine]", "values": [
      {"measurement": "corneal curvature (RCC), anterior chamber depth (ACD) and lens thickness (LT)", "setting": "[2]", "value": "not affected by the drug"},
      {"measurement": "pupil dilation", "setting": "[2]; subconjunctival", "value": "pupil dilation occurred"},
      {"measurement": "refraction change towards negative, axial length elongation and vitreous chamber depth increase vs negative control", "setting": "[2]; FDM, subconjunctival", "value": "significantly inhibited"},
      {"measurement": "therapeutic effect on the guinea pig myopia model", "setting": "[3]; 0.01% atropine eye drops, same administration conditions", "value": "did not have any therapeutic effect"},
      {"measurement": "inhibition rate for the vitreous chamber depth", "setting": "[3]; [4]", "value": 21.8, "unit": "%"},
      {"measurement": "refraction inhibition rate", "setting": "[3]; [4]", "value": 40.0, "unit": "%"},
      {"measurement": "axial length difference between the eyes", "setting": "[3]; [5]", "value": "0.11±0.05 mm and 0.1093±0.0530 mm"},
      {"measurement": "vitreous chamber depth difference between the eyes", "setting": "[3]; [5]", "value": "0.11±0.05 mm and 0.1107±0.0502 mm"},
      {"measurement": "pupil dilation", "setting": "[3]; 0.1% atropine eye drops, during administration", "value": "Adverse reactions of pupil dilation occurred"},
      {"measurement": "refraction difference between the eyes (model-induced myopia)", "setting": "[3]; FDM, 0.1% atropine eye drops 25 μL twice a day, 2 weeks", "value": "−3.93±1.75", "unit": "D"},
      {"measurement": "efficacy as positive control", "setting": "[1]; 0.1% atropine subconjunctival", "value": "showed its due efficacy"},
      {"measurement": "pupil dilation", "setting": "[1]; 0.1% atropine subconjunctival", "value": "Pupil dilation occurred"}
    ]}
  ]
}
